Common to all, as to assay type: biochemical
For test [1], the target named is T1, CDK2/CyclinA (Homo sapiens, UniProt P24941).
T1 construct: purchased Proqinase
Put plainly: Kinase assay determining CDK2/CyclinA activity. As to conditions: read-out: CDK2 (activity range). The protocol:
Kinase Assays Determining CDK2/CyclinA and CDK5/p35 Activity:
Kinase assays were performed as described by the manufacturers recommendations (Proqinase for CDK2/CyclinA and Upsate for CDK5/p35).

Test [2] deals with CDK4 (Homo sapiens, UniProt P11802). Put plainly: Kinase assay, CDK4 activity range (Table 2).
The target of test [3] is T2, CDK9/Cyclin T1 (Homo sapiens, UniProt P50750).
T2 construct: made in house; host or cells: HEK293 cells, recombinant adenovirus
Put plainly: Kinase assay using CDK9/Cyclin T1. As to conditions: read-out: CDK9 (activity range). The essentials: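 Recombinant CDK9/Cyclin T1 produced via adenoviral expression from gateway-cloned cDNAs. Kinase reaction run essentially per a published protocol.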

Structures are written as SMILES.

T2 sequence (P50750 whole entry): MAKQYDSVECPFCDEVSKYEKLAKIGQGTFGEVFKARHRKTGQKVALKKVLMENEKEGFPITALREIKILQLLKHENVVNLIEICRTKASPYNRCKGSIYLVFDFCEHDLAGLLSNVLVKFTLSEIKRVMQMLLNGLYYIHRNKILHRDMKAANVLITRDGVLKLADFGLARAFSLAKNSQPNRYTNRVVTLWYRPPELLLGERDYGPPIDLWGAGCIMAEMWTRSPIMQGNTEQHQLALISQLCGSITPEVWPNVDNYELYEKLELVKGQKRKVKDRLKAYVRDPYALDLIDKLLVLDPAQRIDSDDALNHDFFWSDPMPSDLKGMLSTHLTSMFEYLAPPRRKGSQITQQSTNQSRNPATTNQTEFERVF
T2 sequence (O60563 whole entry partner): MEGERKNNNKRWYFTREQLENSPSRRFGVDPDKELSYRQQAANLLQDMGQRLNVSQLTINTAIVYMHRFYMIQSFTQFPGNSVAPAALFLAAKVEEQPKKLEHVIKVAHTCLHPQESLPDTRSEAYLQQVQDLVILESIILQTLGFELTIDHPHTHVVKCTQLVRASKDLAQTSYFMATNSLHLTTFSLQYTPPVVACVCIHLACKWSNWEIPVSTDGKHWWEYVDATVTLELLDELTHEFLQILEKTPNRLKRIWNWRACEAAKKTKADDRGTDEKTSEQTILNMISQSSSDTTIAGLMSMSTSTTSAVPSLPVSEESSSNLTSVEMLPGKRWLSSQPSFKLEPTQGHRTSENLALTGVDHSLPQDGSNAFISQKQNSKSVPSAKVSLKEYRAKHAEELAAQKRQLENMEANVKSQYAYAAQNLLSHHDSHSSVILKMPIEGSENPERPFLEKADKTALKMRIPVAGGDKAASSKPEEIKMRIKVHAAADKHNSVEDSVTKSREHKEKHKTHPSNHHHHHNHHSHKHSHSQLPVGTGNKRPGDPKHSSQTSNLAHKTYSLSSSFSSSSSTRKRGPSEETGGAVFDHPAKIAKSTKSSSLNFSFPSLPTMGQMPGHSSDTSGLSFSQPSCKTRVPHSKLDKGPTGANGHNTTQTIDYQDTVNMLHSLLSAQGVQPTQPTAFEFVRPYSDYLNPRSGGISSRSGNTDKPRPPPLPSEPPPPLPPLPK
Chain of CDK4 (P11802 whole entry, species assumed): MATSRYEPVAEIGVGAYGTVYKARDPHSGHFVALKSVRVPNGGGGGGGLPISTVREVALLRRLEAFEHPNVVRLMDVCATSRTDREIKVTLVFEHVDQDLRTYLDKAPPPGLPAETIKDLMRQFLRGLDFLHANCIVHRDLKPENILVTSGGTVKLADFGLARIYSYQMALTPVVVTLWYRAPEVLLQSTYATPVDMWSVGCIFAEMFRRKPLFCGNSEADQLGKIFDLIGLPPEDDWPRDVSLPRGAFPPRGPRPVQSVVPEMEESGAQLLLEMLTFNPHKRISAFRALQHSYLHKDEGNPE
Chain of CDK4 (P24385 whole entry partner, species assumed): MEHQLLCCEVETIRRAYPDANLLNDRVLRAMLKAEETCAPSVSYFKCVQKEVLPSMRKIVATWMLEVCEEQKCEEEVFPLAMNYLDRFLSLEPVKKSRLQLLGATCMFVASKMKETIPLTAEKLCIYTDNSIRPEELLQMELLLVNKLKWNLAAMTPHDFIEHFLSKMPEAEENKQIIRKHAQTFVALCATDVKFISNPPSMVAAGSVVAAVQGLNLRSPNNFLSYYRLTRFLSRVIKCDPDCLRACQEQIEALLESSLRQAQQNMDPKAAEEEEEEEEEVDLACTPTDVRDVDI

As to `COc1ccccc1-c1cc(Nc2ccc(NC(=O)C3CCCN(C)C3)cc2)ncn1` (stereo not drawn) [(87)], the IC50 in test [1] was 1 to 10 µM; in test [2], 1 to 10 µM; in test [3], 0.001 to 1 µM.

Regarding `Cc1ccc(Nc2cc(-c3cccc(C(F)(F)F)c3)ncn2)cc1NS(C)(=O)=O` [(107)], the IC50 in test [1], in test [2] and in test [3] was 10 to 250 µM in each case.

`CC(C)Oc1ccccc1-c1cc(Nc2ccc(NC(=O)[C@@H]3CCCCN3)cc2)ncn1` [(188)]: the IC50 in test [1] lay within 1 to 10 µM; in test [2] it was 0.001 to 1 µM; in test [3], 0.001 to 1 µM.

For `CC[C@H](C)[C@H](N)C(=O)Nc1ccc(Nc2cc(-c3ccccc3OC)ncn2)cc1` [(140)], the IC50 in test [1] was in the range of 1 to 10 µM; in test [2] it was 1 to 10 µM; in test [3], 0.001 to 1 µM.

In the case of `CNC(C)(C)C(=O)Nc1ccc(Nc2cc(-c3ccccc3OC)ncn2)cc1` [(118)], the IC50 in test [1] lay in the range of 1 to 10 µM; in test [2] it was 0.001 to 1 µM; in test [3] it was 0.001 to 1 µM.

Turning to `COc1ccccc1-c1cc(Nc2ccc(NC(=O)[C@@H]3Cc4ccccc4CN3)cc2)ncn1` [(65)], the IC50 was 1 to 10 µM in test [1], 10 to 250 µM in test [2] and 0.001 to 1 µM in test [3].

In the case of `Cc1ccc(Nc2cc(-c3cccc(O)c3)ncn2)cc1NS(C)(=O)=O` [(105)], the results for the IC50 in test [1], in test [2] and in test [3] were 0.001 to 1 µM, 10 to 250 µM and 0.001 to 1 µM, respectively.

For the compound `COc1ccccc1-c1cc(Nc2ccc(NC(=O)[C@@H](N)C(C)C)cc2)ncn1` [(143)], the IC50 in test [1] was 1 to 10 µM; in test [2], 1 to 10 µM; in test [3], 0.001 to 1 µM.

As to `COc1ccccc1-c1cc(Nc2cccc(NC(=O)[C@@H]3CCCCN3)c2)ncn1` [(128)], the IC50 in test [1] is 0.001 to 1 µM; in test [2] it was 1 to 10 µM; in test [3], 0.001 to 1 µM.

As for `COc1ccccc1-c1cc(Nc2ccc(NC(=O)C3(N)CCCC3)cc2)ncn1` [(68)], the IC50 in test [1] was in the range of 1 to 10 µM; in test [2] it was 1 to 10 µM; in test [3], 0.001 to 1 µM.

With `CCN(CC)CCC(=O)Nc1ccc(Nc2cc(-c3ccccc3OC)ncn2)cc1` [(64)], the IC50 fell in the range of 1 to 10 µM in test [1], 1 to 10 µM in test [2] and 0.001 to 1 µM in test [3].

Consider `Cc1ccc(Nc2cc(-c3ccccc3)ncn2)cc1NS(C)(=O)=O` [(106)], for which the IC50 lay within 0.001 to 1 µM in test [1], 10 to 250 µM in test [2] and 0.001 to 1 µM in test [3].

For the compound `NC(=O)c1ccc(Nc2cc(-c3ccccc3OCc3ccccc3)ncn2)cc1` [(95)], the IC50 in test [1] lay within 0.001 to 1 µM; in test [2], 1 to 10 µM; in test [3], 0.001 to 1 µM.

Consider `COc1ccccc1-c1cc(Nc2ccc(NC(=O)C3(N)CCCCC3)cc2)ncn1` [(66)], for which the IC50 lay within 1 to 10 µM in test [1], 1 to 10 µM in test [2] and 0.001 to 1 µM in test [3].

Turning to `CN[C@H](C(=O)Nc1ccc(Nc2cc(-c3ccccc3OC)ncn2)cc1)c1ccccc1` [(82)], the IC50 in test [1] lay within 1 to 10 µM; in test [2], 1 to 10 µM; in test [3], 0.001 to 1 µM.

For `COc1ccccc1-c1cc(Nc2cccc(S(N)(=O)=O)c2)ncn1` [(150)], the IC50 was 0.001 to 1 µM in test [1], 10 to 250 µM in test [2] and 0.001 to 1 µM in test [3].

For `COc1ccc(-c2cc(Nc3ccc(NC(=O)[C@@H]4CCCCN4)cc3)ncn2)c(OC)c1` [(187)], the IC50 lay within 1 to 10 µM in test [1], 0.001 to 1 µM in test [2] and 0.001 to 1 µM in test [3].

In the case of `COc1ccccc1-c1cc(Nc2ccc(NC(C)=O)cc2)ncn1` [(10)], the IC50 in test [1] lay in the range of 0.001 to 1 µM; in test [2], 1 to 10 µM; in test [3], 0.001 to 1 µM.

As to `CC(C)Oc1ccccc1-c1cc(Nc2ccc(C(=O)N[C@@H]3CCCC[C@H]3N)cc2)ncn1` (racemic) [(199)], the IC50 in test [1] lay within 1 to 10 µM; in test [2], 1 to 10 µM; in test [3] it was 0.001 to 1 µM.

For `COc1ccccc1-c1cc(Nc2ccc(NC(=O)CCN)cc2)ncn1` [(102)], the figures for the IC50 in test [1], in test [2] and in test [3] were 1 to 10 µM, 0.001 to 1 µM and 0.001 to 1 µM, respectively.

As for `COc1ccccc1-c1cc(Nc2ccc(NC(=O)CC3CCCCN3)cc2)ncn1` (stereo not drawn) [(59)], the IC50 in test [1] was 1 to 10 µM; in test [2], 0.001 to 1 µM; in test [3], 0.001 to 1 µM.

Take `COc1ccccc1-c1cc(Nc2ccc(NC(=O)[C@@H]3CCCCN3)cc2)ncn1` [(30)]: the IC50 lay in the range of 1 to 10 µM in test [1], 0.001 to 1 µM in test [2] and 0.001 to 1 µM in test [3].

As to `NCCCOc1ccccc1-c1cc(Nc2ccc(NC(=O)c3ccc(N)cc3)cc2)ncn1` [(103)], the IC50 in test [1] lay in the range of 1 to 10 µM; in test [2] it was 10 to 250 µM; in test [3], 0.001 to 1 µM.

Regarding `COc1ccccc1-c1cc(Nc2ccc(NC(=O)[C@@H](N)c3ccccc3)cc2)ncn1` [(81)], the results for the IC50 in test [1], in test [2] and in test [3] were 1 to 10 µM, 1 to 10 µM and 0.001 to 1 µM, respectively.

With `COc1ccccc1-c1cc(Nc2ccc(C(=O)N[C@@H]3CCCC[C@H]3N)cc2)ncn1` (racemic) [(83)], the IC50 in test [1] lay within 1 to 10 µM; in test [2] it was 1 to 10 µM; in test [3], 0.001 to 1 µM.

`COc1ccccc1-c1cc(Nc2ccc(C(=O)NC3CCCNC3)cc2)ncn1` (stereo not drawn) [(86)]: the IC50 in test [1], in test [2] and in test [3] was 0.001 to 1 µM throughout.

Take `COc1ccccc1-c1cc(Nc2ccc(C(N)=O)cc2)ncn1` [(14)]: the IC50 is 0.001 to 1 µM in test [1], 10 to 250 µM in test [2] and 0.001 to 1 µM in test [3].

Turning to `COc1ncccc1-c1cc(Nc2ccc(NC(=O)[C@@H]3CCCCN3)cc2)ncn1` [(171)], the IC50 in test [1] is 1 to 10 µM; in test [2], 1 to 10 µM; in test [3], 0.001 to 1 µM.

On to `CC(=O)Nc1cccc(-c2cc(Nc3ccc(C)c(NS(C)(=O)=O)c3)ncn2)c1` [(104)], for which the values for the IC50 in test [1], in test [2] and in test [3] were 1 to 10 µM, 10 to 250 µM and 0.001 to 1 µM, respectively.

`COc1ccccc1-c1cc(Nc2ccc(N)cc2)ncn1` [(22)]: the IC50 in test [1] was 0.001 to 1 µM; in test [2] it was 1 to 10 µM; in test [3], 0.001 to 1 µM.

These data come from patent US8084457B2, “Pharmaceutically active 4,6-disubstituted aminopyrimidine derivatives as modulators of protein kinases” (Lead Discovery Center GmbH, priority 2003, dated 2011).
